Test results published in patent US9556135B2, “Amino-dihydrothiazine and amino-dioxido dihydrothiazine compounds as beta-secretase antagonists and methods of use” (Amgen Inc., priority 2012, dated 2017).

Tested on: Abeta 40
Assay: In vivo inhibition of beta-secretase: Abeta 40 reduction in CSF and brain of the rat
Conditions: 10 mpk (unless otherwise noted), after 4 hrs
Excerpt: In Vivo Inhibition of Beta-Secretase
Several animal models, including mouse, rat, dog, and monkey, may be used to screen for inhibition of beta-secretase activity in vivo following administration of a test compound sample. Animals used in this invention can be wild type, transgenic, or gene knockout animals. […] One to twenty-four hours following the administration of compound, animals are sacrificed, and brains as well as cerebrospinal fluid (CSF) and plasma are removed for analysis of A-beta levels and drug or test compound concentrations (Dovey et al., 2001, Journal of Neurochemistry, 76, 173-181) Beginning at time 0, animals are administered by oral gavage, or other means of delivery such as intravenous injection, an inhibitory test compound of up to 100 mg/kg in a standard, conventional formulation, such as 2% hydroxypropyl methylcellulose, 1% Tween80. A separate group of animals receive 2% hydroxypropyl methylcellulose, 1% Tween80 alone, containing no test compound, and serve as a vehicle-control group. At the end of the test period, animals are sacrificed and brain tissues, plasma or cerebrospinal fluid are collected. Brains are either homogenized in 10 volumes (w/v) of 0.2% diethylamine (DEA) in 50 mM NaCl (Best et al., 2005, Journal of Pharmacology and Experimental Therapeutics, 313, 902-908), or in 10 volumes of 0.5% TritonX-100 in Tris-buffered saline (pH at about 7.6). Homogenates are centrifuged at 355,000 g, 4° C. for 30 minutes. CSF or brain supernatants are then analyzed for the presence of A-beta peptide by specific sandwich ELISA assays based on ECL (Electrochemiluminescence) technology. For example, rat Abeta40 is measured using biotinylated-4G8 (Signet) as a capture antibody and Fab40 (an in-house antibody specific to the C-terminal of Abeta40) as a detection antibody.
Actual vehicles used: Oral: 2% HPMC, 1% Tween80, pH 2.2

| Structure (SMILES) | % reduction of rat CSF levels at 10 pmk | % reduction of rat brain levels at 10 mpk |
| --- | --- | --- |
| CC1(C)C(N)=N[C@](CF)(c2cc(NC(=O)c3ccc(Cl)cn3)ccc2F)CS1(=O)=O [Example 193, (S)—N-(3-(5-amino-3-(fluoromethyl)-6,6-dimethyl-1,1-dioxido-3,6-dihydro-2H-1,4-thiazin-3-yl)-4-fluorophenyl)-5-chloropicolinamide] | 57% | 30% |
| COc1ccc(C(=O)Nc2cnc(F)c([C@]3(C)CS(=O)(=O)C(C)(C)C(N)=N3)c2)nc1 [Example 401, N-(5-((3R)-5-amino-3,6,6-trimethyl-1,1-dioxido-3,6-dihydro-2H-1,4-thiazin-3-yl)-6-fluoro-3-pyridinyl)-5-methoxy-2-pyridinecarboxamide] | 69% | 48% |
| COc1cnc2c(Nc3ccc(F)c([C@]4(C)CS(=O)(=O)[C@@](C)(F)C(N)=N4)c3)ncnc2c1 [Example 177, (3R,6R)-5-Amino-6-fluoro-3-(2-fluoro-5-((7-methoxypyrido[3,2-d]pyrimidin-4-yl)amino)phenyl)-3,6-dimethyl-3,6-dihydro-2H-1,4-thiazine 1,1-dioxide] | 37% | 24% |
| CC1(C)C(N)=N[C@](C)(c2cc(Nc3ncnc4cc(Cl)cnc34)ccc2F)C(F)S1(=O)=O (stereo partly drawn) [Example 228, N-(3-((3R)-5-amino-2-fluoro-3,6,6-trimethyl-1,1-dioxido-3,6-dihydro-2H-1,4-thiazin-3-yl)-4-fluorophenyl)-7-chloropyrido[3,2-d]pyrimidin-4-amine] | 67% | 58% |
| COc1cnc2c(Nc3ccc(F)c([C@]4(CF)CS(=O)(=O)C(C)(C)C(N)=N4)c3)nccc2n1 [Example 447, N-(3-((3S)-5-amino-3-(fluoromethyl)-6,6-dimethyl-1,1-dioxido-3,6-dihydro-2H-1,4-thiazin-3-yl)-4-fluorophenyl)-2-methoxypyrido[3,4-b]pyrazin-5-amine] | 62% | 42% |
| Cc1cc(OC(F)F)cnc1C(=O)Nc1ccc(F)c([C@@]2(C)N=C(N)C3(CCC3)S(=O)(=O)[C@@H]2F)c1 [Example 132, N-(3-((6S,7R)-9-amino-6-fluoro-7-methyl-5,5-dioxido-5-thia-8-azaspiro[3.5]non-8-en-7-yl)-4-fluorophenyl)-5-(difluoromethoxy)-3-methylpicolinamide] | 31% | 10% |
| COc1cnc(C(=O)Nc2ccc(F)c([C@]3(CF)CS(=O)(=O)C(C)(C)C(N)=N3)c2)c(C)c1 [Example 377, N-(3-((3S)-5-amino-3-(fluoromethyl)-6,6-dimethyl-1,1-dioxido-3,6-dihydro-2H-1,4-thiazin-3-yl)-4-fluorophenyl)-5-methoxy-3-methyl-2-pyridinecarboxamide] | 68% | 53% |
| CC1(C)C(N)=N[C@](CF)(c2cc(Nc3ncnc4cc(Cl)cnc34)ccc2F)CS1(=O)=O [Example 235, N-(3-((3S)-5-amino-3-(fluoromethyl)-6,6-dimethyl-1,1-dioxido-3,6-dihydro-2H-1,4-thiazin-3-yl)-4-fluorophenyl)-7-chloropyrido[3,2-d]pyrimidin-4-amine] | 38% | 14% |
| C[C@@]1(c2cc(NC(=O)c3ccc(Cl)cn3)ccc2F)CS(=O)(=O)C2(CC(F)(F)C2)C(N)=N1 [Example 120, (R)—N-(3-(9-amino-2,2-difluoro-7-methyl-5,5-dioxido-5-thia-8-azaspiro[3.5]non-8-en-7-yl)-4-fluorophenyl)-5-chloropicolinamide] | 39% | 18% |
| Cc1cc(Cl)cnc1C(=O)Nc1ccc(F)c([C@]2(CF)CS(=O)(=O)C(C)(C)C(N)=N2)c1 [Example 408, N-(3-((3S)-5-amino-3-(fluoromethyl)-6,6-dimethyl-1,1-dioxido-3,6-dihydro-2H-1,4-thiazin-3-yl)-4-fluorophenyl)-5-chloro-3-methyl-2-pyridinecarboxamide] | 62% | 37% |
| Cc1cc(OC(F)F)cnc1C(=O)Nc1ccc(F)c([C@@]2(C)N=C(N)C(C)(C)S(=O)(=O)C2F)c1 (stereo partly drawn) [Example 330, N-(3-((3R)-5-amino-2-fluoro-3,6,6-trimethyl-1,1-dioxido-3,6-dihydro-2H-1,4-thiazin-3-yl)-4-fluorophenyl)-5-(difluoromethoxy)-3-methyl-2-pyridinecarboxamide] | 78% | 72% |
| CC1(C)C(N)=N[C@](C)(c2cc(NC(=O)c3ccc(Cl)cn3)ccc2F)CS1(=O)=O [Example 19, N-(3-((3R)-5-amino-3,6,6-trimethyl-1,1-dioxido-3,6-dihydro-2H-1,4-thiazin-3-yl)-4-fluorophenyl)-5-chloro-2-pyridinecarboxamide] | 83% | 74% |
| Cc1cc(C#N)cnc1C(=O)Nc1ccc(F)c([C@]2(C)CS(=O)(=O)[C@@](C)(F)C(N)=N2)c1 [Example 324, N-(3-((3R,6R)-5-amino-6-fluoro-3,6-dimethyl-1,1-dioxido-3,6-dihydro-2H-1,4-thiazin-3-yl)-4-fluorophenyl)-5-cyano-3-methyl-2-pyridinecarboxamide] | 44% | 29% |
| CC#CCOc1cnc(C(=O)Nc2ccc(F)c([C@]3(C)CS(=O)(=O)[C@@](C)(F)C(N)=N3)c2)cn1 [Example 317, N-(3-((3R,6R)-5-amino-6-fluoro-3,6-dimethyl-1,1-dioxido-3,6-dihydro-2H-1,4-thiazin-3-yl)-4-fluorophenyl)-5-(2-butyn-1-yloxy)-2-pyrazinecarboxamide] | 23% | 0% |
| CC1(C)C(N)=N[C@](C)(c2cc(Nc3nccc4cc(Cl)cnc34)ccc2F)CS1(=O)=O [Example 45, N-(3-((3R)-5-amino-3,6,6-trimethyl-1,1-dioxido-3,6-dihydro-2H-1,4-thiazin-3-yl)-4-fluorophenyl)-3-chloro-1,7-naphthyridin-8-amine] | 63% | 34% |
| CC1(C)C(N)=N[C@](C)(c2cc(NC(=O)c3ncc(Cl)cc3F)ccc2F)C(F)S1(=O)=O (stereo partly drawn) [Example 329, N-(3-((3R)-5-amino-2-fluoro-3,6,6-trimethyl-1,1-dioxido-3,6-dihydro-2H-1,4-thiazin-3-yl)-4-fluorophenyl)-5-chloro-3-fluoro-2-pyridinecarboxamide] | 27% | 20% |
| COc1cnc2c(Nc3cnc(F)c([C@]4(C)CS(=O)(=O)C(C)(C)C(N)=N4)c3)ncc(F)c2c1 [Example 219, N-(5-((3R)-5-amino-3,6,6-trimethyl-1,1-dioxido-3,6-dihydro-2H-1,4-thiazin-3-yl)-6-fluoro-3-pyridinyl)-5-fluoro-3-methoxy-1,7-naphthyridin-8-amine] | 42% | 9% |
| COc1cnc(C(=O)Nc2ccc(F)c([C@]3(C)CS(=O)(=O)[C@@](C)(F)C(N)=N3)c2)cn1 [Example 30, N-(3-((3R,6R)-5-amino-6-fluoro-3,6-dimethyl-1,1-dioxido-3,6-dihydro-2H-1,4-thiazin-3-yl)-4-fluorophenyl)-5-methoxy-2-pyrazinecarboxamide] | 56% | 37% |
| CC1(C)C(N)=N[C@](C)(c2cc(NC(=O)c3ccc(Cl)cn3)cnc2F)CS1(=O)=O [Example 398, N-(5-((3R)-5-amino-3,6,6-trimethyl-1,1-dioxido-3,6-dihydro-2H-1,4-thiazin-3-yl)-6-fluoro-3-pyridinyl)-5-chloro-2-pyridinecarboxamide] | 63% | 39% |
| Cc1cc(OC(F)F)cnc1C(=O)Nc1ccc(F)c([C@]2(C)CS(=O)(=O)C(C)(C)C(N)=N2)c1 [Example 144, (R)—N-(3-(5-amino-3,6,6-trimethyl-1,1-dioxido-3,6-dihydro-2H-1,4-thiazin-3-yl)-4-fluorophenyl)-5-(difluoromethoxy)-3-methylpicolinamide] | 79% | 72% |
